We go through one compound from patent publication US9212204B2, “Treatment of rett syndrome using glycyl-L-2-methylprolyl-L-glutamic acid” (priority 2011, dated 2015).

Read-outs that look alike come from different tables or passages of the source. Non-standard residues stand in square brackets, D forms with d. Residues, ends and D or L forms follow the SMILES beside them. αMeP = C[C@@]1(C(=O)O)CCCN1

The subject of series [1] is PCNA positive cells in the subventricular zone (SVZ). Description: PCNA staining, neuroblast proliferation in the subventricular zone. In kind it is in vivo, rat. The note with it: for number of PCNA positive cells in the SVZ: 3 days after treatment. As to the method:
To carry out these studies, tissues were fixed and embedded in paraffin and sections obtained using standard methods. Coronal sections (6 μm) containing the level of the hippocampus were cut and mounted on chrome-alum-coated slides for staining. The sections were deparaffinized in xylene, dehydrated in a series of ethanol and incubated in 0.1 M phosphate buffered saline (PBS).
Primary antibodies against glial fibrillary acidic protein (GFAP) and proliferating cell nuclear antigen (PCNA) were used to mark reactive glial cells and cells undergoing apoptosis and proliferation, respectively. For antigen unmasking (caspase-3 and PCNA staining), sections were heated in 10 mM sodium citrate buffer (pH 6.0) for 1 min at high power. All sections were pretreated with 1% […] in 50% methanol for 30 min to quench the endogenous peroxidase activity. Then either 1.5% normal horse serum or 2.5% normal sheep serum in PBS was applied for 1 h at room temperature to block nonspecific background staining. The sections were then incubated with following primary antibodies: monoclonal mouse anti-GFAP antibody (Sigma, St. Louis, Mo., U.S.A. diluted 1:500); mouse anti-PCNA antibody (DAKA, A/S, Denmark, diluted 1:100). After incubation with primary antibodies at 4° C. for 2 d (except for PCNA staining which was incubated overnight) the sections were incubated with biotinylated horse anti-mouse or goat anti-rabbit secondary antibody (1:200, Sigma) at 4° C. overnight. The ExtrAvidin™ (Sigma, 1:200), which had been prepared 1 h before use, was applied for 3 h at room temperature, and then reacted in 0.05% 3,3-diaminobenzidine (DAB) and PBS to produce a brown reaction product. Sections were dehydrated in a series of alcohols to xylene and coverslipped with mounting medium.
Immunohistochemical staining was performed on brain samples taken from both control and G-2-MePE treated groups of young (4 months old), middle-aged (9 months old) and aged rats (18 months old).
Control sections were processed in the same way except the primary antibody was omitted from the incubation solution. The number of PCNA positive cells was counted in the subventricular zone and the GFAP positive cells was scored in the cerebral cortex.
The subventricular zone (SVZ) and the dentate gyrus (DG) are two brain regions hosting adult neurogenesis. […]
Eighteen month old male rats were treated intraperitoneally with single does of G2-MePE (doses of either 0, 0.012, 0.12. 1.2, 12 mg/kg). […] The number of PCNA positive cells was counted in the SVZ and the number of cells was then averaged as cells/mm depending on the length of ventricle wall used for counting (FIG. 19A). […]

The subject of series [2] is hemizygous MeCP2(1lox) male mice. Type of series: in vivo. The note with it: for time to 50 percent death: 20 mg/kg/day i.p. From the text:
To determine whether G-2-MePE treatment can impact the development and progression of Rett Syndrome in a murine model of the disorder, we used hemizygous MeCP2(1lox) male mice. The MeCP2 knock-out (MeCP2-KO) mouse system is widely accepted in the art as closely mimicking the range and the severity of physiological and neurological abnormalities characteristic of the human disorder, Rett Syndrome.

`C[C@@]1(C(=O)N[C@@H](CCC(=O)O)C(=O)O)CCCN1C(=O)CN` [Example G-2-MePE, Glycyl-L-2-methylprolyl-L-glutamic acid] (H-Gly-[αMeP]-Glu-OH): the “number of PCNA positive cells in the SVZ” value in series [1] (1.2 mg/kg i.p., 9 month old rats, p<0.005) was “significant increase”; in series [1] (12 mg/kg single i.p. dose, 18 month old rats, vs vehicle p<0.05), “significant increase”. Also, the “dose dependence of effect on neurogenesis” value in series [1] (0.012-12 mg/kg single i.p. dose, 18 month old rats) is “dose-dependent effect”. The “PCNA and doublecortin staining” value in series [1] (highest dose, vs vehicle treated rat, FIG. 19B) is reported as “increase”. In addition, the “time to 50 percent death” value in series [2] (data initially presented) and in series [2] (re-examination with control group re-run) was 16 weeks each time. In series [2] (mouse, in vivo), the “safety in mecp2 mice” value is reported as “No safety concerns”.
